In brackets after ≈: the same amount, converted by molar mass. Square brackets hold non-standard residues; d marks the D form. Peptide text beside a SMILES is read from it. Ac6c = NC1(C(=O)O)CCCCC1
Experiments:
[1] = test system: extended-spectrum β-lactamase producing E. coli strain (designation 5770); assay: Systemic infection model, cisplatin-pretreated CD-1 mice, blood bacterial counts; assay type: in vivo
Experimental: As peptide drugs, such as antimicrobial peptides, are predominantly cleared through the kidneys (Klootwijk et al., 1997. J. Clin. Endocrinol. Metab. 82: 3068-3073) and the kidney functions of mice are 20-fold faster than those of humans, CD-1 female mice of 15-20 g were pretreated with 18 mg/kg cisplatin for 3 days to impair kidney clearance similar to the levels observed in humans (Mathe et al., 2006. Lab. Anim. 40: 296-300) before they were challenged intraperitoneally (ip) with 10^8 CFU per g mouse of an extended-spectrum β-lactamase producing E. coli strain (designation 5770). Four, 8 and 12 hours after challenge 10 or 20 mg/kg peptide Chex1-Arg20 or 40 mg/kg imipenem (as a positive control) were administered ip to 10 mice in each group. Imipenem is a broad spectrum β-lactam antibiotic. Prior to drug administration at all three timepoints, blood was taken from the tail vein of 3-5 mice for determining blood bacterial counts. […] Antimicrobials were administered ip 4 hours after challenge 3 times in 4 hour intervals. Blood was taken immediately before antimicrobial treatments. Numbers in parentheses indicate the number of mice with <10^3 CFU/mL. Bacterial counts were determined 10 times from different dilution of blood from 5 mice in each group in each timepoints.

K. pneumoniae HK 123 = test system: K. pneumoniae HK 123
Description: (§1) To investigate the activity of the A3-APO metabolites, Chex1-Arg20 single chain unit and an Arg7-Arg20 common cleavage fragment were synthesized and studied for their ability to kill Enterobacteriaceae strains in undiluted Muller-Hinton broth, a true measure of potential clinical viability (Otvos et al., 2005. J. Med. Chem. 48: 5349-5359). The peptides of the invention were made on a CEM Liberty automated synthesizer with standard Fmoc-chemistry. The peptides were detached from the resin with the carboxyl terminus of the C-terminal Arg residue being in the form of an amino amide, —C(O)—NH2 (“Chex1-Arg20-NH2” and “Arg7-Arg20-NH2”), while still in the microwave chamber, and were purified by RP-HPLC. […] The biological studies carried out on chemically synthesized peptides in this example and succeeding examples were carried out on the C-terminal modified versions of the peptides wherein the C-terminal carboxylic acid function was in the form of an amide, —C(O)—NH2. Antibacterial growth inhibition assays were performed using sterile 96-well polypropylene plates (Nunc F96 microtiter plates) in a final volume of 100 μL as described previously (Cudic et al., 2002. Peptides 23: 271-283). The cell concentrations were estimated by measuring the ultraviolet absorbance at 600 nm and applying the formula cfu/mL=A600(3.8×10^8), where cfu is the number of colony-forming units. Briefly, 50 μL of a suspension of midlogarithmic phase bacterial cultures diluted to 5×10^5 cfu/mL in Muller-Hinton broth (MHB) was added to 50 μL of serially diluted peptides also dissolved in MHB. The final peptide concentration was 128 μg/mL. Cultures were then incubated at 37° C., 5% CO2 for 16-20 h without shaking, and growth inhibition was measured by recording the absorbance at 600 nm using a microplate reader. […] The minimal inhibitory concentration indicates the lowest peptide dose where no visible bacterial growth is detected after 16 hours incubation in full strength Muller-Hinton broth at 37° C. The peptide Chex-pyrr-Dap dimer was also included in the study. […] (Cudic et al., 2002. Peptides 23: 271-283).
(§2) Following the protocol of Example 2, minimal inhibitory concentrations of the Chex1-Arg20 peptide against selected bacteria was determined. […] A3-APO was included for comparison.

S. typhimurium S5 = test system: S. typhimurium S5
Description: as §1, §2

K. pneumoniae HK 127 = test system: K. pneumoniae HK 127
Description: as §1, §2

E. coli SOTE40 = test system: E. coli SOTE40
Description: as §1, §2

P. aeruginosa 10 = test system: P. aeruginosa 10
Description: as §1, §2

[2] = test system: S. typhimurium ATCC 14028
Description: as §1, §2

[3] = test system: A. baumannii ATCC BBA-1605
Description: as §1, §2

[4] = test system: S. saprophyticus ATCC 15305
Description: as §1, §2

E. coli HK179 = test system: E. coli HK179
Description: as §1, §2

K. pneumoniae K6 = test system: K. pneumoniae K6
Description: as §1, §2

S. typhimurium G10215 = test system: S. typhimurium G10215
Description: as §1, §2

K. pneumoniae 012-3132 = test system: K. pneumoniae 012-3132
Description: as §1, §2

E. coli 5770 = test system: E. coli 5770
Description: as §1, §2

E. coli SEQ102 = test system: E. coli SEQ102
Description: as §1, §2

K. pneumoniae HK 186 = test system: K. pneumoniae HK 186
Description: as §1, §2

P. aeruginosa ATCC 39329 = test system: P. aeruginosa ATCC 39329
Description: as §1, §2

E. coli HK131 = test system: E. coli HK131
Description: as §1, §2

E. coli 045-849 = test system: E. coli 045-849
Description: as §1, §2

**Q.** For `CC(C)C[C@H](NC(=O)[C@H](Cc1ccc(O)cc1)NC(=O)[C@@H]1CCCN1C(=O)[C@H](CCCNC(=N)N)NC(=O)[C@@H]1CCCN1C(=O)[C@H](CCCCN)NC(=O)[C@H](CC(=O)O)NC(=O)[C@@H]1CCCN1C(=O)[C@H](CCCNC(=N)N)NC(=O)C1(N)CCCCC1)C(=O)N1CCC[C@H]1C(=O)N[C@@H](CCCNC(=N)N)C(=O)N1CCC[C@H]1C(=O)N[C@@H](CCCNC(=N)N)C(=O)N1CCC[C@H]1C(=O)N1CCC[C@H]1C(=O)N[C@@H](CCCNC(=N)N)C(=O)N1CCC[C@H]1C(=O)N[C@H](C(=O)N[C@@H](CCCNC(=N)N)C(=O)O)C(C)C` [Chex1-Arg20, Chex-Arg-Pro-Asp-Lys-Pro-Arg-Pro-Tyr-Leu-Pro-Arg-Pro-Arg--Pro-Pro-Arg-Pro-Val-Arg] (H-[Ac6c]RPDKPRPYLPRPRPPRPVR-OH; N-terminus and C-terminus assumed), which bacterial count reduction ([1]; 10 mg/kg) is on record?
**A.** approximately 3 log 10 units

**Q.** What about the “Bacterial counts in blood after inoculation/challenge” value ([1]; 10 mg/kg ip, 4 h (blood taken before first dose)) of the same compound?
**A.** 3.2 × 10^5 CFU/mL

**Q.** And the “Bacterial counts in blood after inoculation/challenge” value ([1]; 10 mg/kg ip, 8 h)?
**A.** 8.2 × 10^3 CFU/mL

**Q.** What about the “number of mice with <10^3 CFU/mL” value ([1]; 10 mg/kg ip, 8 h) of the same compound?
**A.** 1/5

**Q.** What about the “Bacterial counts in blood after inoculation/challenge” value ([1]; 10 mg/kg ip, 12 h) of the same compound?
**A.** < 1.3 × 10^4 CFU/mL

**Q.** And the “number of mice with <10^3 CFU/mL” value ([1]; 10 mg/kg ip, 12 h)?
**A.** 1/5

**Q.** What about the “effect on mouse blood after a lethal E. coli infection” value ([1]; 20 mg/kg) of the same compound?
**A.** sterilized mouse blood

**Q.** And the “Bacterial counts in blood after inoculation/challenge” value ([1]; 20 mg/kg ip, 4 h (blood taken before first dose))?
**A.** 3.2 × 10^5 CFU/mL

**Q.** What about the “Bacterial counts in blood after inoculation/challenge” value ([1]; 20 mg/kg ip, 8 h) of the same compound?
**A.** 5.5 × 10^4 CFU/mL

**Q.** What about the “number of mice with <10^3 CFU/mL” value ([1]; 20 mg/kg ip, 8 h) of the same compound?
**A.** 3/5

**Q.** And the “Bacterial counts in blood after inoculation/challenge” value ([1]; 20 mg/kg ip, 12 h)?
**A.** < 3.7 × 10^3 CFU/mL

**Q.** And the “number of mice with <10^3 CFU/mL” value ([1]; 20 mg/kg ip, 12 h)?
**A.** 3/5

**Q.** And the bacterial count reduction ([1]; after two doses of 20 mg/kg)?
**A.** 3.5 log 10 units

**Q.** What about the “mice having blood bacterial levels below detection limits” value ([1]; after two doses of 20 mg/kg) of the same compound?
**A.** 60%

**Q.** What about the “MIC, K. pneumoniae HK 123” value (K. pneumoniae HK 123) of the same compound?
**A.** 2 µg/mL (≈ 0.808 µM)

**Q.** And the “MIC, S. typhimurium S5” value (S. typhimurium S5)?
**A.** 0.5 µg/mL (≈ 0.202 µM)

**Q.** And the “MIC, K. pneumoniae HK 127” value (K. pneumoniae HK 127)?
**A.** 0.25 µg/mL (≈ 0.101 µM)

**Q.** What about the “MIC, E. coli SOTE40” value (E. coli SOTE40) of the same compound?
**A.** 2 µg/mL (≈ 0.808 µM)

**Q.** What about the “MIC, P. aeruginosa 10” value (P. aeruginosa 10) of the same compound?
**A.** 32 µg/mL (≈ 12.9 µM)

**Q.** What about the “MIC, S. typhimurium ATCC 14028” value [2] of the same compound?
**A.** 1 µg/mL (≈ 0.404 µM)

**Q.** What about the “MIC, A. baumannii ATCC BBA-1605” value [3] of the same compound?
**A.** 16 µg/mL (≈ 6.46 µM)

**Q.** What about the “MIC, S. saprophyticus ATCC 15305” value [4] of the same compound?
**A.** 4 µg/mL (≈ 1.62 µM)

**Q.** What about the “MIC, E. coli HK179” value (E. coli HK179) of the same compound?
**A.** 1 µg/mL (≈ 0.404 µM)

**Q.** And the “MIC, K. pneumoniae K6” value (K. pneumoniae K6)?
**A.** 2 µg/mL (≈ 0.808 µM)

**Q.** And the “MIC, S. typhimurium G10215” value (S. typhimurium G10215)?
**A.** 0.25 µg/mL (≈ 0.101 µM)

**Q.** And the “MIC, K. pneumoniae 012-3132” value (K. pneumoniae 012-3132)?
**A.** 0.25 µg/mL (≈ 0.101 µM)

**Q.** And the “MIC, E. coli 5770” value (E. coli 5770)?
**A.** 0.5 µg/mL (≈ 0.202 µM)

**Q.** What about the “MIC, E. coli SEQ102” value (E. coli SEQ102) of the same compound?
**A.** 1 µg/mL (≈ 0.404 µM)

**Q.** And the “MIC, K. pneumoniae HK 186” value (K. pneumoniae HK 186)?
**A.** 0.25 µg/mL (≈ 0.101 µM)

**Q.** And the “MIC, P. aeruginosa ATCC 39329” value (P. aeruginosa ATCC 39329)?
**A.** 32 µg/mL (≈ 12.9 µM)

**Q.** And the “MIC, E. coli HK131” value (E. coli HK131)?
**A.** 1 µg/mL (≈ 0.404 µM)

**Q.** What about the “MIC, E. coli 045-849” value (E. coli 045-849) of the same compound?
**A.** 2 µg/mL (≈ 0.808 µM)

From US8492515B2 (priority 2008, dated 2013)
